Results published in PMC6916019, “In vitro anti-malarial efficacy of chalcones: cytotoxicity profile, mechanism of action and their effect on erythrocytes” (Malaria Journal, 2019).
Where a name gives a salt, the structure may show the parent alone. Read-outs that look alike come from different tables or passages of the source.

Assays:
[1] = tested on: haemozoin (β-haematin) production in P. falciparum cultures; experiment: Haemozoin inhibition assay in P. falciparum cultures; assay type: cell-based, Plasmodium falciparum; settings: drug near IC50 concentration, 48 h; untreated control 547.61 ± 9.52
Protocol: Briefly, the test cultures were centrifuged for 5–10 min at 1300 rpm to dispose of the culture medium. Infected erythrocyte pellet (mingled of β-haematin and erythrocyte membrane) were exposed to 0.01% saponin lysis for 10 min at 25 °C to lyse erythrocyte to release parasites. […] The haemozoin content was quantified by taking the absorbance at 400 nm and using a standard curve prepared from β-haematin. The amount of haemozoin formed in relation to control was calculated. All assays were performed in triplicate.

HeLa cell line [2] = tested on: HeLa cell line
Protocol: (§5) Cytotoxicity of the compounds on mammalian cells were accomplished employing HeLa cell line (NCCS, Pune) cultured in DMEM supplemented with 10% FBS by the MTT (3-(4,5-dimethylthiazol-2-yl)-2,5-diphenyltetrazolium bromide) microenzymatic method with certain modifications [32]. Briefly, cells (10^4 cells/200 μL/well) were seeded into 96-well flat-bottom sterile tissue culture plates in complete medium. After 24 h of seeding, the test compounds at different dilutions were added and kept for another 24 h in a humidified chamber with 5% CO2 at 37 °C. Twenty microlitres of MTT (5.00 mg/mL in 1XPBS) stock solution were pipetted into each well, mixed and incubated for at least 3–4 h. After incubation, the plates were centrifuged at 1500 rpm for 5 min. The supernatant was disposed cautiously and 100 μL of DMSO were added to each well to lyse the cell and dissolve the insoluble purple formazan product into a coloured solution. Absorbance was taken at 570 nm to determine formazan formation as a measurement of cell viability. Experiments were performed in triplicate.

[3] = tested on: P. falciparum chloroquine resistant strain (RKL-9); experiment: WHO Mark III schizont maturation inhibition assay, chloroquine resistant strain; assay type: cell-based, Plasmodium falciparum; settings: for Selective index (SI) P.falciparum chloroquine^R (RKL-9): SI = CC50 (HeLa)/IC50 (RKL-9); for Resistance Index (RI) IC50 (RKL-9)/IC50 (MRC-2): ratio of IC50 resistant / sensitive strain
Protocol: (§1) These strains were perpetuated in vitro in continuous culture according to the method of Trager and Jensen with slight modifications. Briefly, both sensitive and resistant strains of P. falciparum were maintained in A+ erythrocytes in RPMI-1640 medium (having glutamine, but without any sodium bicarbonate) comprising 1.00 g of dextrose, 5.94 g of HEPES buffer, 40.00 mg of gentamycin. Additionally supplemented with 5% sodium bicarbonate and 10% (v/v) inactivated human AB+ serum then incubated in gas mixture of 5% CO2, 5% O2 and 90% N2 at 37 °C. Parasitized erythrocytes at initial 5% haematocrit were suspended in above mentioned culture medium and parasitaemia was regularly checked to maintain level between 2 and 4% with further sub-culturing for parasitaemia beyond 5%. Growth and multiplication of parasite was monitored by microscopy using Giemsa-stained slides.
(§2) To obtain ring stages of the parasite, the cultures were synchronized using D-sorbitol. The cultures, with majority of ring stages, were treated with equal volume of aqueous 5% D-sorbitol for 5 min and then after centrifugation pellet were suspended in complete medium and fresh erythrocytes synchronized culture with 1% parasitaemia and 5% haematocrit were used for compound concentration response assay.
(§3) The concentration of each test compound needed to hinder multiplication of parasites by 50% (IC50) against P. falciparum strains were obtained through concentration response assay performed in 96-well sterile tissue culture plates. Synchronized parasite cultures were applied to different doses of each compound. Dilutions were performed in gentamycin-free culture medium, and incubated at 37 °C having gaseous mixture (5% CO2, 5% O2 and 90% N2) supply for 24 h. The results were expressed as IC50 values computed from HN-NonLin Regression analysis, as well as mean percentage inhibition ± standard error examined by thick smear Giemsa stained slides. %ParasiteInhibition29,30=100-TotalnumberofSchizontsintestwells/TotalnumberofSchizontsincontrolwell∗100
(§4) Parasite at ring stage was used for compound concentration response assay with parasitaemia of 1% at 5% haematocrit. […] The IC50 and IC90 values of all compounds were determined and the resistance index between the two sensitive and resistant strains was calculated (Table 2). […] The percentage inhibition in schizont maturation was also calculated after incubation of ring stage P. falciparum till 24 h at the same range of drug concentrations (Table 3).

[4] = tested on: P. falciparum chloroquine sensitive strain (MRC-2); experiment: microbe, parasite or virus in culture; settings: for % Schizont maturation inhibition ± SD (MRC-2): Conc. = 6.25 μg/mL; for % Schizont maturation inhibition ± SD (MRC-2) / P. falciparum Chloroquine^s Strain (MRC-2) IC50 / P. falciparum Chloroquine^s Strain (MRC-2) IC90: 24 h; for Selective index (SI) P.falciparum chloroquine^s (MRC-2): SI = CC50 (HeLa)/IC50 (MRC-2); for P. falciparum Chloroquine^s Strain (MRC-2) IC50 / P. falciparum Chloroquine^s Strain (MRC-2) IC90: schizont maturation, ring stage
Protocol: as §1, §2, §3, §4

HeLa cell line [5] = experiment: MTT cytotoxicity / cell viability assay; settings: MTT, 24 h, not in table head
Protocol: as §5

normal erythrocytes = experiment: Haemolysis assay on normal erythrocytes; settings: Conc. = 12.5 μg/mL, 3 h, 37 °C
Protocol: (§6) Briefly, fresh erythrocytes were centrifuged for 5 min at 1600 rpm for at least thrice in PBS and then the remaining pellet was re-suspended in PBS at 2% hematocrit. One hundred microlitres of this suspended pellet was added to 96-well sterile culture plate having test compounds at different desired concentrations. PBS alone (for baseline values) and 0.4% Triton X-100 in PBS (for 100% haemolysis) were employed as controls. After keeping at 37 °C for 3 h, the test samples were centrifuged and the supernatant was used for determination of the haemolytic activity quantified in terms of haemoglobin release as monitored spectrophotometrically by taking absorbance at 415 nm [33]. The experiment was done in triplicate and the mean ± SD was calculated [33, 34]. %Haemolysis=[Absorbanceofsample415nm-Absorbanceofblanksample415nm/Absorbanceofpositivecontrol415nm]∗100

[6] = MTT cytotoxicity / cell viability assay; settings: human, HeLa cells
Protocol: as §5

Plasmodium = settings: comparison value, reference not given; cited from earlier work
[7] = schizont maturation, 24 h, ring stage

Protocol for in vitro: as §6

| IC50 ([3]; Plasmodium falciparum, read-out: P. falciparum Chloroquine^R Strain (RKL-9) IC50, schizont maturation, 24 h, ring stage) [µg/mL] | IC90 ([3]; Plasmodium falciparum, read-out: P. falciparum Chloroquine^R Strain (RKL-9) IC90, schizont maturation, 24 h, ring stage) [µg/mL] | Compound | Amount of haemozoin production [1] [ng/mL] | HeLa Cell CC50 (HeLa cell line [2]) [µg/mL] | % Schizont maturation inhibition ± SD (RKL-9) ([3]; Conc. = 6.25 μg/mL, 24 h) [%] | Selective index (SI) P.falciparum chloroquine^R (RKL-9) [3] | Resistance Index (RI) IC50 (RKL-9)/IC50 (MRC-2) [3] | P. falciparum Chloroquine^R Strain (RKL-9) IC50 [3, 7] [µg/mL] | P. falciparum Chloroquine^R Strain (RKL-9) IC90 [3, 7] [µg/mL] | % Schizont maturation inhibition ± SD (MRC-2) [4] [%] | Selective index (SI) P.falciparum chloroquine^s (MRC-2) [4] | P. falciparum Chloroquine^s Strain (MRC-2) IC50 [4] [µg/mL] | P. falciparum Chloroquine^s Strain (MRC-2) IC90 [4] [µg/mL] | HeLa Cell CC50 (HeLa cell line [5]) [µg/mL] | % Hemolysis ± SD (normal erythrocytes) [%] | CC50 at 24 h [6] [µg/mL] | viability at 24 h, 12.5 µg/mL [6] [%] | hemolysis at 3 h, 12.5 μg/mL (in vitro) [%] | inhibition at 6.25 µg/mL ([3]; Plasmodium falciparum, Conc. = 6.25 μg/mL, 24 h, read-out: % Schizont maturation inhibition ± SD (RKL-9)) [%] | IC50 of licochalcone (Plasmodium) [µg/mL] |
| --- | --- | --- | --- | --- | --- | --- | --- | --- | --- | --- | --- | --- | --- | --- | --- | --- | --- | --- | --- | --- |
| – | – | COc1ccc(/C=C/C(=O)c2cc(OC)c(OC)c(OC)c2)cc1 [Chalcone 6] | 457.14 ± 38.09 | 1.66 | 43.85 ± 33.23 | 8.74 | 0.54 | 0.19 | 0.98 | 51.05 ± 42.42 | 4.74 | 0.35 | 5.23 | – | – | – | – | – | – | – |
| – | – | COc1ccc(/C=C/C(=O)c2cc(OC)c(OC)c(OC)c2)cc1OC [Chalcone 7] | 385.71 ± 4.76 | – | 85.82 ± 6.36 | 85.05 | 1.64 | 0.18 | 0.67 | 94.24 ± 2.21 | 139.18 | 0.11 | 0.46 | – | – | – | – | – | – | – |
| – | – | COc1cc(C(=O)/C=C/c2ccc3c(c2)OCO3)cc(OC)c1OC [Chalcone 8] | – | 2.20 | 77.78 ± 1.41 | 8.46 | 0.90 | 0.26 | 5.31 | 75.17 ± 12.02 | 7.59 | 0.29 | 1.01 | – | – | – | – | – | – | – |
| – | – | O=C(/C=C/c1cc2ccccc2[nH]1)c1ccc(Cl)cc1 [Chalcone 9] | – | – | 48.87 ± 25.46 | 7.85 | 0.84 | 0.21 | 0.95 | 50.32 ± 33.23 | 6.60 | 0.25 | 0.96 | 1.65 | 1.30 ± 0.009 | – | – | – | – | – |
| – | – | O=C(/C=C/c1cc2ccccc2[nH]1)c1ccc(I)cc1 [Chalcone 10] | – | 1.88 | 49.62 ± 19.79 | 9.90 | 0.95 | 0.19 | 0.81 | 64.44 ± 9.90 | 9.40 | 0.20 | 0.89 | – | – | – | – | – | – | – |
| 0.25 | 1.59 | C=C[C@H]1C[N@@]2CC[C@H]1C[C@H]2[C@H](O)c1ccnc2ccc(OC)cc12 [QNN, quinine hydrochloride, reference compound] | – | – | – | 121.24 | – | – | – | – | – | – | – | – | – | 30.3 | 62.62 ± 0.06 | 2.16 ± 0.035 | 71.9 ± 16.3 | – |
| – | – | C=CC(C)(C)c1cc(/C=C/C(=O)c2ccc(O)cc2)c(OC)cc1O [licochalcone] | – | – | – | – | – | – | – | – | – | – | – | – | – | – | – | – | – | 1.43 |
